According to patent US20130053336A1, “TREATMENT OF CHLAMYDIACEAE INFECTIONS BY MEANS OF BETA-LACTAMS” (priority 2010, published 2013):
“Also recorded” adds a separate entry of the source.

Columns and labels:
[1] = system: Chlamydia trachomatis L2 serovar 16S rRNA; test: 16S rRNA expression by RT-PCR; format: cell-based; conditions: 100 hpi
Text: HeLa cells were infected with the Chlamydia trachomatis L2 serovar and treated or not treated with penicillin G at 3 hpi. At 100 hpi, the cells were collected and the RNA extracted carefully to avoid DNA contamination. Half of the isolated RNA was used for reverse transcription. The RNA and cDNA were amplified by PCR with primers for 16S (bacterial) and 18S (eukaryotic) rRNA in order to study bacterial activity and to verify cDNA quality and quantity. PCR of the RNA is used to verify the absence of DNA contamination. It also indicates the absence of contaminant in the PCR. […] Roughly 1×10^5 HeLa cells were infected and exposed or not exposed to penicillin G, as described above. At 100 hpi, total RNA were isolated using the RNeasy Plus Mini Kit (Qiagen, Hilden, Germany). The samples were treated with DNase I for 1 hour at 37° C. The enzyme was then denatured at 70° C. for 10 min. The RNA were reverse-transcribed into cDNA using random hexamer primers and AffinityScript Multiple Temperature Reverse Transcriptase (Agilent, Santa Clara, Calif., USA) and by following the manufacturer's instructions for RT-PCR. cDNA and RNA were amplified by PCR with Tag Polymerase (Invitrogen, Carlsbad, Calif., USA) in order to verify the absence of DNA contamination. The primers used to amplify 16S rRNA are: A semi-quantitative analysis of the PCR products was carried out by agarose gel electrophoresis and UV detection.

[2] = system: Cells Infected with Chlamydia trachomatis serovar L2; test: Cytotoxicity of β-lactams; format: cell-based; conditions: given as 0
Method: It was first sought to verify whether other molecules of the β-lactam family could induce in vitro the same abnormal and noninfectious forms of Chlamydia trachomatis as that produced in the presence of penicillin G. Titration experiments were performed on the infectious ability of bacteria from infected cells treated with different β-lactams. Cytotoxicity and minimum bactericidal concentration (MBC) were determined for each of these molecules. It was also verified whether all of these β-lactams have bactericidal action on persistent forms of Chlamydia trachomatis produced in vitro under the effect of IFN-γ.

Which results are given for `CC1(C)S[C@@H]2[C@H](NC(=O)Cc3ccccc3)C(=O)N2[C@H]1C(=O)O` [Penicillin G, benzylpenicillin]?
16S rRNA expression in infected cells [1]: do not produce bacterial RNA; also recorded: express 18S RNA, but not 16S; Cytotox. [2]: 0
